According to ChEMBL document CHEMBL6127105, “Immunosuppressive Breviane Spiroditerpenoids from Penicillium bialowiezense Isolated from a Medicinal Plant” (J Nat Prod, 2024):

How the values were obtained:
[1] = Immunosuppressive activity against LPS induced B-cells proliferation; assay type: functional, cell-based; settings: B-cell
[2] = Immunosuppressive activity against ConA induced T-cells proliferation; assay type: functional, cell-based; settings: T-cell

Row | SMILES | IC50 [1] | IC50 [2]
1 | CC1=C[C@H](O)[C@@H]2[C@@]3(C)CC[C@H](O)C(C)(C)[C@@H]3CC[C@@]2(C)[C@]12Cc1c(c(C)c(C)oc1=O)O2 | 4.6 µM | 4.1 µM
2 | CC1=C[C@H](O)[C@@H]2[C@@]3(C)C=CC(=O)C(C)(C)[C@@H]3CC[C@@]2(C)[C@]12Cc1c(c(C)c(C)oc1=O)O2 | 7.5 µM | 4.7 µM
3 | CC1=C[C@H](O)[C@@H]2[C@@]3(C)[C@H](O)CC(=O)C(C)(C)[C@@H]3CC[C@@]2(C)[C@]12Cc1c(c(C)c(C)oc1=O)O2 | 13 µM | 12 µM
4 | CC1=C[C@H](O)[C@@H]2[C@@]3(C)[C@H](O)[C@@H](O)[C@H](O)C(C)(C)[C@@H]3CC[C@@]2(C)[C@]12Cc1c(c(C)c(C)oc1=O)O2 | 6.3 µM | 7.3 µM
5 | CC1=CC[C@@H]2[C@@]3(C)C=CC(=O)C(C)(C)[C@@H]3CC[C@@]2(C)[C@]12Cc1c(c(C)c(C)oc1=O)O2 | 6.7 µM | 4.8 µM
6 | CC1=CC[C@@H]2[C@@]3(C)CCC(=O)C(C)(C)[C@@H]3CC[C@@]2(C)[C@]12Cc1c(c(C)c(C)oc1=O)O2 | 17 µM | 17 µM
7 | CC1=C[C@H](O)[C@@H]2[C@@]3(C)CCC(=O)C(C)(C)[C@@H]3CC[C@@]2(C)[C@]12Cc1c(c(C)c(C)oc1=O)O2 | 18 µM | 11 µM
